Measured values as given in patent US9856508B2, “Chemiluminescent compositions, methods, assays and kits for oxidative enzymes” (LIFE TECHNOLOGIES CORPORATION, priority 2010, dated 2018).

Test system: CYP2C19
Assay: Isozyme specificity of AMPPD-Bn in pooled human liver microsomes (HLMs)
Assay type: biochemical
Conditions: FIG. 4B, 25 min, 25° C., 20 μM AMPPD-Bn, 100 mM potassium phosphate buffer, pH 7.4
Experimental: FIG. 4A and FIG. 4B compare CYP450 isozyme specificity of 1,2-dioxetane substrate AMPPD-Bn in recombinant human microsomes (rhCYPs) and human liver microsomes. FIG. 4A is a graphic representation of isozyme specificity of AMPPD-Bn in rhCYP microsomes. Assays were performed at 25° C. for 25 min using 10 μM AMPPD-Bn, 5 nM rhCYP450 and isozyme-preferred potassium phosphate buffer, pH 7.4. […] FIG. 4B is a graphic representation of isozyme specificity of AMPPD-Bn in pooled human liver microsomes (HLMs). Assays were performed for 25 min at 25° C. using 20 μM AMPPD-Bn and 100 mM potassium phosphate buffer, pH 7.4. Positive (3A4) and negative (2C19, 2D6 and microsome only) controls were performed using 5 nM rhCYP450 microsomes. Pooled HLMs were assayed at 0.5, 0.25, 0.125, or 0.0625 mg/ml. Assays were performed either with or without 2 μM ketoconazole to indicate CYP3A family specificity. […] All assays were performed using the 2-step assay method (Example 48, Format A).
The protocol follows the 2-Step endpoint assay format described in Example 48 (Format A). […] The assays are incubated for either 10 to 25 min before addition of Accelerator and reading of luminescent signal on a luminometer. For relative quantification, samples can be compared to a standard curve of known enzyme concentration, bearing in mind that recombinant enzyme can not fully compare to native enzyme. […]

## COC1(c2cccc(OCc3ccccc3)c2)OOC12C1CC3CC(C1)CC2C3 (stereo not shown) [AMPPD-Bn]
  contribution of CYP2C19 activity to AMPPD-Bn oxidation in HLMs: does not significantly contribute
